From patent publication US20260294915A1, “COMBINATION THERAPY COMPRISING A MAT2A INHIBITOR AND A TOPOISOMERASE INHIBITOR, A SPLICING INHIBITOR SULFONAMIDE, OR A KIF18 INHIBITOR” (IDEAYA BIOSCIENCES, INC., priority 2023, published 2026)
Where two headings read alike, the source gives them in different places.

Legend:
Test in all cases: 10-day proliferation (CTG), equimolar Compound A + SPLAM (Example 4)
Type in all cases: cell-based
[1] = system: SW900; settings: single agent or 1:1 combo; for IC50: Homo sapiens, read-out: gIC50
Procedure: (§1) A 10-day proliferation assay was performed in a panel of 5 MTAP-deficient and 2 wild type non-small cell lung and bladder cancer cell lines. Optimal cell seeding for all cell lines was determined by assessing the growth over a range of seeding densities in a 384-well format to identify conditions that permitted proliferation for 10 days. Cells were then plated at the optimal seeding density and treated with 20-point, two-fold dilution series of Compound A, the splicing inhibitor sulfonamide (SPLAM), or an equimolar combination of Compound A and the SPLAM. Combinations tested included Compound A in combination with four structurally different SPLAMs. Concentrations tested for Compound A and each SPLAM alone or in combination ranged from 0.04 nM to 20,000 nM. A plate of cells was harvested at the time of compound addition to quantify the number of cells at the start of the combination (T0). For cell quantification, the harvested cells were lysed with Promega CellTiter-Glo (CTG) reagent according to the manufacturer's protocol and the chemiluminescent signal was detected on a Synergy Neo plate reader. CTG estimates cell number through detection of cellular ATP levels. Cells were incubated with the drug combinations at 37° C. with 5% CO2 for 10 days. Cells were then lysed with CTG and the chemiluminescent signal was measured.
(§2) CTG values obtained after the 10-day treatment were background subtracted and expressed as a percent of the T0 value. Data were plotted against compound concentration and fit with a four-parameter equation to generate dose response curves for each single agent and the equimolar combination. Growth ICx (gICx) values ranging from gIC30 to gIC100 were interpolated from the fitted curves. Synergistic growth inhibition was assessed by determination of Combination Index (CI) values at these various points across the titration using the mutually non-exclusive equation [Chou, 1983; Chou, 1981] shown below where A equals the gICx value of Compound A, B equals the gICx value of the SPLAM, and A+B or B+A equals the gICx value of the equimolar combination. A Combination Index value less than 1.0 was considered synergistic.

[2] = system: NCI-H520; settings: single agent or 1:1 combo; for IC50: Homo sapiens, read-out: gIC50
Procedure: as §1, §2

[3] = system: UMUC11; settings: single agent or 1:1 combo; for IC50: read-out: gIC50
Procedure: as §1, §2

[4] = system: RT112/84; settings: single agent or 1:1 combo; for IC50: Homo sapiens, read-out: gIC50
Procedure: as §1, §2

[5] = system: NCI-H838; settings: single agent or 1:1 combo; for IC50: Homo sapiens, read-out: gIC50
Procedure: as §1, §2

[6] = system: TCCSUP; settings: single agent or 1:1 combo; for IC50: Homo sapiens, TCC-SUP, read-out: gIC50
Procedure: as §1, §2

[7] = system: UMUC5; settings: single agent or 1:1 combo; for IC50: read-out: gIC50
Procedure: as §1, §2

NS(=O)(=O)c1ccc(S(=O)(=O)Nc2cccc3c(Cl)c[nH]c23)cc1 [Indisulam, N-(3-chloro-1H-indol-7-yl)benzene-1,4-disulfonamide]
gIC30 ([1]; 10 days): 0.295 µM
gIC40 ([1]; 10 days): 0.3 µM
gIC60 ([1]; 10 days): 0.31 µM
gIC70 ([1]; 10 days): 0.315 µM
gIC100 ([1]; 10 days): 0.357 µM
IC80 ([1]; 10 days, read-out: gIC80): 0.321 µM
IC90 ([1]; 10 days, read-out: gIC90): 0.331 µM
IC50 ([1]; SW900, 240 h, 10 days): 0.305 µM
gIC30 ([2]; 10 days): 0.47 µM
gIC40 ([2]; 10 days): 0.546 µM
gIC60 ([2]; 10 days): 0.743 µM
gIC70 ([2]; 10 days): 0.897 µM
gIC100 ([2]; 10 days): 20 µM
IC80 ([2]; 10 days, read-out: gIC80): 1.16 µM
IC90 ([2]; 10 days, read-out: gIC90): 2.07 µM
IC50 ([2]; NCI-H520, 240 h, 10 days): 0.633 µM
IC50 ([3]; 240 h, 10 days): 0.472 µM
gIC30 ([3]; 10 days): 0.369 µM
gIC40 ([3]; 10 days): 0.417 µM
gIC60 ([3]; 10 days): 0.539 µM
gIC70 ([3]; 10 days): 0.628 µM
gIC100 ([3]; 10 days): 20 µM
IC80 ([3]; 10 days, read-out: gIC80): 0.769 µM
IC90 ([3]; 10 days, read-out: gIC90): 1.11 µM
gIC30 ([4]; 10 days): 249 nM
gIC40 ([4]; 10 days): 273 nM
gIC60 ([4]; 10 days): 0.327 µM
gIC70 ([4]; 10 days): 0.363 µM
gIC100 ([4]; 10 days): 20 µM
IC80 ([4]; 10 days, read-out: gIC80): 0.414 µM
IC90 ([4]; 10 days, read-out: gIC90): 0.51 µM
IC50 ([4]; RT112/84, 240 h, 10 days): 0.298 µM
gIC30 ([5]; 10 days): 276 nM
gIC40 ([5]; 10 days): 300 nM
gIC60 ([5]; 10 days): 0.355 µM
gIC70 ([5]; 10 days): 0.393 µM
gIC100 ([5]; 10 days): 20 µM
IC80 ([5]; 10 days, read-out: gIC80): 0.448 µM
IC90 ([5]; 10 days, read-out: gIC90): 0.551 µM
IC50 ([5]; NCI-H838, 240 h, 10 days): 0.325 µM
gIC30 ([6]; 10 days): 20 µM
gIC40 ([6]; 10 days): 20 µM
gIC60 ([6]; 10 days): 20 µM
gIC70 ([6]; 10 days): 20 µM
gIC100 ([6]; 10 days): 20 µM
IC80 ([6]; 10 days, read-out: gIC80): 20 µM
IC90 ([6]; 10 days, read-out: gIC90): 20 µM
IC50 ([6]; 240 h, 10 days): 20 µM
IC50 ([7]; 240 h, 10 days): 0.42 µM
gIC30 ([7]; 10 days): 310 nM
gIC40 ([7]; 10 days): 363 nM
gIC60 ([7]; 10 days): 0.487 µM
gIC70 ([7]; 10 days): 0.574 µM
gIC100 ([7]; 10 days): 20 µM
IC80 ([7]; 10 days, read-out: gIC80): 0.707 µM
IC90 ([7]; 10 days, read-out: gIC90): 0.99 µM

Nc1nc(=O)n(-c2ccccc2Cl)c2nc(C(F)(F)F)ccc12 [Compound A]
gIC30 ([1]; 10 days): 19.994 µM
gIC40 ([1]; 10 days): 20 µM
gIC60 ([1]; 10 days): 20 µM
gIC70 ([1]; 10 days): 20 µM
gIC100 ([1]; 10 days): 20 µM
IC50 ([1]; SW900, 240 h, 10 days): 20 µM
IC50 ([1]; SW900): 20 µM
gIC30 [1]: 19.994 µM
gIC40 [1]: 20 µM
gIC60 [1]: 20 µM
gIC70 [1]: 20 µM
gIC100 [1]: 20 µM
gIC30 ([2]; 10 days): 20 µM
gIC40 ([2]; 10 days): 20 µM
gIC60 ([2]; 10 days): 20 µM
gIC70 ([2]; 10 days): 20 µM
gIC100 ([2]; 10 days): 20 µM
IC50 ([2]; NCI-H520, 240 h, 10 days): 20 µM
IC50 ([2]; NCI-H520): 20 µM
gIC30 [2]: 20 µM
gIC40 [2]: 20 µM
gIC60 [2]: 20 µM
gIC70 [2]: 20 µM
gIC100 [2]: 20 µM
IC50 ([3]; 240 h, 10 days): 20 µM
gIC30 ([3]; 10 days): 20 µM
gIC40 ([3]; 10 days): 20 µM
gIC60 ([3]; 10 days): 20 µM
gIC70 ([3]; 10 days): 20 µM
gIC100 ([3]; 10 days): 20 µM
gIC30 [3]: 20 µM
gIC40 [3]: 20 µM
gIC60 [3]: 20 µM
gIC70 [3]: 20 µM
gIC100 [3]: 20 µM
IC50 [3]: 20 µM
gIC30 ([4]; 10 days): 345 nM
gIC40 ([4]; 10 days): 1111 nM
gIC60 ([4]; 10 days): 12.951 µM
gIC70 ([4]; 10 days): 20 µM
gIC100 ([4]; 10 days): 20 µM
IC50 ([4]; RT112/84, 240 h, 10 days): 3.41 µM
IC50 ([4]; RT112/84): 3.41 µM
gIC30 [4]: 345 nM
gIC40 [4]: 1111 nM
gIC60 [4]: 12.951 µM
gIC70 [4]: 20 µM
gIC100 [4]: 20 µM
gIC30 ([5]; 10 days): 102 nM
gIC40 ([5]; 10 days): 189 nM
gIC60 ([5]; 10 days): 11.309 µM
gIC70 ([5]; 10 days): 20 µM
gIC100 ([5]; 10 days): 20 µM
IC50 ([5]; NCI-H838, 240 h, 10 days): 0.594 µM
IC50 ([5]; NCI-H838): 0.594 µM
gIC30 [5]: 102 nM
gIC40 [5]: 189 nM
gIC60 [5]: 11.309 µM
gIC70 [5]: 20 µM
gIC100 [5]: 20 µM
gIC30 ([6]; 10 days): 14.461 µM
gIC40 ([6]; 10 days): 19.467 µM
gIC60 ([6]; 10 days): 20 µM
gIC70 ([6]; 10 days): 20 µM
gIC100 ([6]; 10 days): 20 µM
IC50 ([6]; 240 h, 10 days): 20 µM
IC50 [6]: 20 µM
gIC30 [6]: 14.461 µM
gIC40 [6]: 19.467 µM
gIC60 [6]: 20 µM
gIC70 [6]: 20 µM
gIC100 [6]: 20 µM
IC50 ([7]; 240 h, 10 days): 4.28 µM
gIC30 ([7]; 10 days): 420 nM
gIC40 ([7]; 10 days): 1291 nM
gIC60 ([7]; 10 days): 13.142 µM
gIC70 ([7]; 10 days): 20 µM
gIC100 ([7]; 10 days): 20 µM
gIC30 [7]: 420 nM
gIC40 [7]: 1291 nM
gIC60 [7]: 13.142 µM
gIC70 [7]: 20 µM
gIC100 [7]: 20 µM
IC50 [7]: 4.28 µM
